According to a melting point compilation (Tetko et al.; mined from patent text by program, amines drawn as free bases though some values may be those of a salt):

Row | melting point | Structure (SMILES)
1 | 74 to 77 °C | COCc1ncc(C(=O)OC)n1C
2 | 165 to 167 °C | COc1cc2cc(COC(C)=O)c(COC(C)=O)c(-c3ccncc3)c2cc1OC
3 | 106 °C | BrC(Br)Cc1cccc2[nH]c(-c3ccccc3)cc12
4 | 238 to 242 °C | O=C(O)CN1C(=O)C(=Cc2ccc([N+](=O)[O-])o2)SC1=S
5 | 134 to 135 °C | COc1ccc(CCNS(=O)(=O)Cc2ccc3[nH]cc(CC#N)c3c2)cc1
6 | 223 to 224 °C | CCCCOc1c(CNC(=O)OC(C)(C)C)n(CC(C)C)c(=O)c2ccc(-c3noc(=O)[nH]3)cc12
7 | 114 to 116 °C | C#Cc1ccc(S(N)(=O)=O)s1
8 | 162 to 165 °C | Cc1nc(NC(=O)c2cccc(F)c2)sc1C(=O)NCc1ccccc1
9 | 242 °C | O=C1CC[C@@H]2c3ccc(Cl)cc3CCC2N1 (some centres undefined)
10 | 112 °C | CCOC(=O)C(C)(C)Oc1ccc(OCCc2nc(-c3ccc(C(N)=O)cc3)oc2C)cc1
11 | 86 to 87 °C | O=[N+]([O-])c1c(NCC23CCCN2CCC3)ccc2ccccc12
12 | 134 to 137 °C | CN(C(=O)CCl)C1(c2ccccc2)Cc2ccccc2C1
13 | 165 to 167 °C | CCCCc1nc2cccc(C(=O)O)c2n1Cc1ccc(-n2cccc2-c2nnn[nH]2)cc1
14 | 63 to 65 °C | CCCCCCCCCCCCCCCCCC(=O)NCCS
15 | 218 to 221 °C | C=CCONC(=O)c1nc(-c2ccc(C#N)cc2)cc(N)c1Cl
16 | 224 to 226 °C | CCCCN(CCCC)c1ccc(C=Cc2ccc(C=CC3=C(C#N)C(=C(C#N)C#N)OC3(C)C)cc2)cc1
17 | 168 to 172 °C | CN1CNS(=O)(=O)c2cc(O)ccc21

Row | melting point | Structure (SMILES)
18 | 105 to 106 °C | CCCC=Cc1c(C(C)C)nc(C(C)C)c(CO)c1-c1ccc(F)c(F)c1
19 | 97 °C | CCCCSc1c2sc3ccccc3nc-2cc(C)c1=O
20 | 172 °C | CC(C)(C)[N+]([O-])=Cc1cc([N+](=O)[O-])ccc1O
21 | 171 to 172 °C | N#Cc1ccccc1-c1ccc2cc(CBr)ccc2c1
22 | 94 °C | O=c1c2ccccc2sc2ccc(SCCO)cc12
23 | 88 to 89 °C | O=C(CCl)Oc1ccccc1CCC1SCCN1C(=O)CCl (centres undefined)
24 | 132 °C | COc1cc2c(c(Cl)c1Cl)C(=O)CCC2
25 | 125 °C | CCCCc1nnc(-c2ccc(N)cc2)o1
26 | 141 to 144 °C | c1coc(C2Nc3ccccc3N3CCc4cccc2c43)c1 (centres undefined)
27 | 160 to 162 °C | CCc1ccc(C(=O)NCc2ccc3c(c2)C(=O)N([C@@]2(C)CCC(=O)NC2=O)C3=O)cc1
28 | 292 to 294 °C | Cc1cccc2nc(C)n(C3CCC(=O)NC3=O)c(=O)c12 (centres undefined)
29 | 85 to 87 °C | CCCCCCCCCCCCC[C@@H](CC(N)=O)OC(=O)[C@H](CCCC(=O)OCc1ccccc1)NC(=O)c1cnc2ccccc2c1
30 | 221 to 223 °C | NC(=O)c1sc2nc(N3CCC(NCC(O)c4cccc5c4OCO5)CC3)cc(C(F)(F)F)c2c1N (centres undefined)
31 | 277 to 278 °C | N#CC(=Cc1ccc(O)c(O)c1)C(=O)Nc1ccc(Br)cc1
32 | 175 °C | CCN1CCc2ccc(Nc3ncc(Cl)c(Nc4ccccc4S(=O)(=O)NC)n3)cc2CC1
33 | 144 to 150 °C | CS(=O)(=O)N1C(=O)[C@H](C2CC2)[C@H]2[C@@H]1CCN2C(=O)OCc1ccccc1 (relative stereo)

More lines, now with the values behind:

Row | Structure (SMILES) | melting point
34 | CN(O)C(=O)NCCc1cc2ccccc2o1 | 120 °C
35 | O=C(O)[C@H](CCc1ccccc1)NS(=O)(=O)c1ccc2oc3ccccc3c2c1 | 130 to 132 °C
36 | Clc1ccc(Oc2cncc(Cl)n2)cc1 | 92 to 93 °C
37 | Cc1c(OCc2ccccc2)ccc2c(O)c(C(=O)Nc3cccc(F)c3)c(=O)oc12 | 220 °C
38 | CN1CC(CCCN2CCN(c3ccccc3O)CC2)OC1=O (centres undefined) | 112 to 116 °C
39 | O=C(O)c1cc(F)c(C(F)(F)F)cc1[N+](=O)[O-] | 142 to 145 °C
40 | CN1CCCC(O)(c2cccc3c2ccn3C)C1 (centres undefined) | 90 °C
41 | CCOc1cscc1C=O | 42 to 45 °C
42 | Cc1cccc(Nc2cc(Nc3ccc(OCC(N)=O)cc3)ncn2)c1 | 212 to 215 °C
43 | CCCCCCNP(N)(N)=S | 65 to 70 °C
44 | N#Cc1cc(C(=O)NNC(=O)c2occc2-c2ccccc2-c2ccccc2)ccc1O | 159 to 162 °C
45 | c1ccc2[nH]c(Cc3ccncc3)nc2c1 | 185 to 186 °C
46 | CC(C(=O)NC(=O)OCC(F)(F)F)(c1ccccc1)c1ccccc1 | 143 to 145 °C
47 | CCC(CC)Nc1nc(C)nc(Oc2c(C)cc(C)cc2C)c1N | 248 to 250 °C
48 | COc1cccc(OC)c1C(=O)P(=O)(c1ccccc1)c1ccccc1 | 124 to 126 °C
49 | Cc1c(C(=O)CS(=O)(=O)Cc2ccc(Cl)cc2)sc2ccc(Cl)cc12 | 204 to 206 °C
50 | CCCCc1oc2ccccc2c1C(O)c1ccc(-c2ccc(O)cc2)cc1 (centres undefined) | 47 to 49 °C
51 | CC(C)(C)NC(=O)CN1C(=O)C(N)CC(c2ccccc2F)c2ccccc21 (centres undefined) | 190 to 195 °C
52 | CCc1n[nH]c(CC)c1CCCCCCOc1ccccc1 | 119 to 121 °C
53 | CCCCCCCN(CC)C(=O)Cc1ccc(N)cc1 | 172 to 174 °C
54 | Cc1c(NC(=O)c2ccc(-c3ccc(Cl)s3)cc2)ccc2cc(CN3CCCCC3)cnc12 | 212 to 213 °C

Row | Structure (SMILES) | melting point
55 | CC(C)C(C)(C)NC(=S)Nc1cc(Cl)cc(Cl)c1 | 132 to 134 °C
56 | CC(O)CN1C(=O)N(CC(C)O)C(C)(C)C1=O (centres undefined) | 65 to 67 °C
57 | NS(=O)(=O)c1cccc(NC(=O)c2cnn3c(C4CC4)cc(-c4ccc(C(F)(F)F)cc4)nc23)c1 | 249 to 250 °C
58 | Cc1cccc(C)c1Sc1c(O)cc(-c2ccccc2)oc1=O | 248 to 249 °C
59 | Cc1ccc(Cc2cnc(NCCCN(C)c3ncccc3C)[nH]c2=O)cn1 | 83 to 85 °C
60 | O=[N+]([O-])c1ccc(Oc2ccc(C(F)(F)F)cc2Cl)nc1Cl | 53 to 59 °C
61 | CCOC(=O)Cc1ccc(CCN2CCN(C(=O)C=Cc3cc(C(C)(C)C)c(O)c(C(C)(C)C)c3)CC2)cc1 | 111 to 113 °C
62 | COc1ccc(Cn2cc(C(F)(F)F)ccc2=O)cc1 | 84.2 to 86.1 °C
63 | COc1cccc(-n2c(-c3cc(-c4ccccc4)c(N4CCOCC4)s3)nc3ccccc3c2=O)c1 | 269 to 272 °C
64 | CC(C)C1(C)NC(c2ccccc2C(=O)O)=NC1=O (centres undefined) | 162 to 163 °C
65 | CC(C)(C(N)=O)c1nnc2ccc(OCCCN3CCC(OC(c4ccccc4)c4ccccc4)CC3)nn12 | 133 to 136 °C
66 | Cc1cc2[nH]c3c(c2cc1C)CC(N(C)C)CC3 (centres undefined) | 183 to 187 °C
67 | CCOC(=O)C=C(C)C=CC=C(C)C=Cc1c(Cl)cc(OC)c(C)c1Cl | 100 to 101 °C
68 | COc1cc(Br)cc(C23CC4CC(CC(C4)C2)C3)c1OCc1ccccc1 | 89 to 91 °C
69 | CC1(Cc2ccccc2)CCNC1=O (centres undefined) | 89 to 90 °C
70 | COc1ccc(/C=C/c2ncccc2C(=O)O)cc1 | 230 to 233 °C
71 | COc1c(C)nc2sc(Cl)cn2c1=O | 138 to 141 °C
72 | COc1ccc2c(c1)C(=O)N(c1cnc3c(ccn3C)c1)C2 | 198 to 199 °C
73 | CCc1nc2c(C)cc(C)nc2n1Cc1ccc(Nc2ccccc2)cc1 | 151 to 152 °C
74 | CC(=O)Nc1ccc(-c2cn(-c3nc(-c4ccc(C(F)(F)F)cc4)cc(C(F)(F)F)n3)cn2)cn1 | 314 °C
